Data from PubChem BioAssay AID248 (DTP/NCI, 2004).
Several values for one entry are separate records, joined by “and”; a condition that tells them apart may be missing. Identical values can stand only once. Inconclusive results and toxic doses are left out. Cut-off read from the data, not from the text of the source: active = T/C of 150% or more; inactive = T/C below 125%.

System: L1210 leukemia ip in BDF1 mice, survival T/C
Assay: NCI In Vivo Anticancer Drug Screen. Data for tumor model L1210 Leukemia (intraperitoneal) in B6D2F1 (BDF1) mice
Settings: endpoint: mean survival time, higher = longer survival
In short: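 Value reflects the ratio of survival in compound-treated mice to survival in vehicle-treated controls, with both groups carrying the same transplanted tumor.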

[1] = dose: 100.0 mg/kg/injection, schedule: Q04DX003 (ip), vehicle: saline
[2] = dose: 50.0 mg/kg/injection, schedule: Q01DX009 (ip), vehicle: saline
[3] = dose: 100.0 mg/kg/injection, schedule: Q01DX009 (ip), vehicle: saline
[4] = dose: 200.0 mg/kg/injection, schedule: Q01DX009 (ip), vehicle: saline
[5] = dose: 200.0 mg/kg/injection, schedule: Q04DX003 (ip), vehicle: saline

Measured: T/C

CC[N+](C)(CC)CCNC(=O)C(c1ccccc1)c1ccccc1
inactive: [1] 100 % of control

CC1C(=O)Nc2ccccc2N1C(=O)CN1CCCC1 (stereo not given)
inactive: [2] 98 % of control | [3] 101 % of control | [1] 96 % of control | [4] 106 % of control | [5] 96 % of control | dose: 400.0 mg/kg/injection, schedule: Q04DX003 (ip), vehicle: saline 94 % of control

CN(C)c1ccc(/C=C(\C#N)c2ccccc2)cc1
inactive: dose: 100.0 mg/kg/injection, schedule: Q01DX001 (ip), vehicle: saline with Tween-80 87 % of control | dose: 200.0 mg/kg/injection, schedule: Q01DX001 (ip), vehicle: saline with Tween-80 88 % of control

CN(C)C(C)(C)CC(C)(C)C
inactive: dose: 25.0 mg/kg/injection, schedule: Q04DX003 (ip), vehicle: saline with Tween-80 103 % of control | dose: 50.0 mg/kg/injection, schedule: Q04DX003 (ip), vehicle: saline with Tween-80 106 % of control | dose: 100.0 mg/kg/injection, schedule: Q04DX003 (ip), vehicle: saline with Tween-80 103 % of control

CCc1nccc(=O)[nH]1
inactive: [2] 102 % of control and 101 % of control | [3] 88 % of control and 110 % of control | [1] 94 % of control and 110 % of control | [4] 100 % of control and 103 % of control | [5] 89 % of control and 104 % of control

O=C(COc1ccc(Cl)cc1Cl)Nc1ccccc1[N+](=O)[O-]
inactive: dose: 100.0 mg/kg/injection, schedule: Q04DX002 (ip), vehicle: saline 92 % of control | dose: 200.0 mg/kg/injection, schedule: Q04DX002 (ip), vehicle: saline 92 % of control | dose: 400.0 mg/kg/injection, schedule: Q04DX002 (ip), vehicle: saline 92 % of control
